# Data reported in publication PMC4669708 (Cell Death & Disease, 2015).
# Columns and labels:
# recombinant RIPK1 = molecular target: T1, recombinant RIPK1 (Homo sapiens, UniProt Q13546); test: Recombinant kinase assay; assay type: biochemical; conditions: 50 μM ATP; Supplementary Figure 4b
# T1 construct: purchased Signalchem R07-10G
# Method: (§1) Recombinant RIPK1 or RIPK3 protein was incubated with the substrate MBP in kinase assay buffer (40 mM Tris-HCl pH 7.5, 10 mM MgCl2 and 1 mM DTT) in presence of 50 μM ATP, 5 μCi [γ-32 P]ATP and the indicated inhibitors in a total volume of 20 μl. […] The terminated reactions were spotted onto a SAM2 Biotin Capture membrane (Promega) and further processed according to the manufacturer's instructions. […] Data were normalized to a DMSO-treated control sample. For autoradiography, the reactions were stopped by addition of 5 μl 4x Laemmli buffer and incubated for 5 min at 95 °C.
# HT-29 MLKL S358D cells = test: Cell death driven by doxycycline-induced MLKL S358D expression; assay type: cell-based, human; conditions: 2 μg/ml doxycycline overnight; 10 μM NSA, 0.5 μM ponatinib
# Method: (§2) Cells were seeded in 12-, 24- or 96-well plates at proper cell density. For necroptosis or apoptosis assays, cells were incubated with the indicated compound combinations at concentrations stated for 14–24 h. Smac mimetic and z-VAD-FMK were added 30–60 min before treatment with TNF-α, FasL or TRAIL. Cell viability was determined using CellTiter Glo Luminescent Cell Viability Assay (Promega, Fitchburg, WI, USA) according to the manufacturer's instructions. Luminescence was recorded with a SpectraMax M5Multimode plate reader (Molecular Devices, Sunnyvale, CA, USA). For flow cytometry-based determination of viability, cells were harvested, collected by centrifugation, washed once and resuspended in staining buffer (1 × PBS, 10% FBS). Cells were incubated with 0.5 μg/ml PI for 10 min at room temperature (RT) in the dark. Flow cytometric analyses were performed on an LSR Fortessa (BD Biosciences) and analyzed with FlowJo software version 7.6.3 (Tree Star Inc, Ashland, OR, USA). Cell size was evaluated by forward scatter. PI-negative normal-sized cells were considered living and data were normalized to values of untreated controls. For detection of apoptosis, cells were resuspended in Annexin V Binding Buffer (BioLegend, San Diego, CA, USA) and stained with 0.5 μg/ml PI and Alexa Fluor 647 Annexin V (BioLegend) according to manufacturer's instructions.
# [1] = test system: FADD-deficient Jurkat cells; test: Drug toxicity, cell viability without TNF-α; assay type: cell-based; conditions: Homo sapiens, 24 h, no TNF-α, CellTiter Glo
# Method: as §2
# 3T3-SA cells = test: TNF-α/z-VAD (TZ)-induced necroptosis; assay type: cell-based, murine; conditions: Supplementary Figures 3a, b
# Method: as §2
# endogenous RIPK3 = molecular target: T2, endogenous RIPK3 (Homo sapiens, UniProt Q9Y572); test: Cellular thermal shift assay (CETSA); assay type: cell-based; conditions: FADD-deficient Jurkat cells, 0.5 μM, 3 h
# T2 construct: endogenous in cells; host or cells: FADD-deficient Jurkat I2.1
# T2 sequence (Q9Y572 whole entry): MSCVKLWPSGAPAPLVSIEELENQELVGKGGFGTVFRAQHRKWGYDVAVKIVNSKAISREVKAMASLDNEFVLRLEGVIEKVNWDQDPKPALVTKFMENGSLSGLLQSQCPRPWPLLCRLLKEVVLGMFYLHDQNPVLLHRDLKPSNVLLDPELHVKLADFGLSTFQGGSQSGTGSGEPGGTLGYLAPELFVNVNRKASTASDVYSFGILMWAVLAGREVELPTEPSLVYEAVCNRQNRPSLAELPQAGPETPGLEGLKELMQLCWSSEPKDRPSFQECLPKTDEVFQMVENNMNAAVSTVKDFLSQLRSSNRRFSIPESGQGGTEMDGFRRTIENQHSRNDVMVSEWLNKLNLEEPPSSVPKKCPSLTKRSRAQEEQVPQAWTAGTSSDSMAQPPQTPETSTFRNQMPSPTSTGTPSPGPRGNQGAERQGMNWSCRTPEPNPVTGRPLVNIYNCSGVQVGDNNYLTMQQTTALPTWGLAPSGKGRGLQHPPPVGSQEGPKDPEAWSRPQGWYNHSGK
# Method: Drug target engagement in cells, causing stabilization of the respective protein, was analyzed essentially as described previously.[55] […] After treatment, cells were collected by centrifugation and resuspended in 1x PBS. The cell suspension was aliquoted into PCR tubes and heated for 3 min at 42, 46, 50, 54, 58 or 62 °C. Subsequently, cells were lysed by three consecutive freeze–thaw cycles using liquid nitrogen. The soluble fraction was separated from precipitated proteins by centrifugation at 13000 r.p.m. and 4 °C for 20 min. The supernatant, containing the soluble proteins, was transferred to a fresh tube and analyzed by immunoblotting.
# RIPK3 to MLKL binding = RIPK3 to MLKL binding (Homo sapiens, UniProt Q9Y572); conditions: HT-29 HA-MLKL cells, doxycycline overnight; 0.5 μM ponatinib, 5 μM pazopanib
# Chain of RIPK3 to MLKL binding (Q9Y572 whole entry): as above
# RIPK3 = RIPK3 (Homo sapiens, UniProt Q9Y572); test: Recombinant kinase assay; assay type: biochemical; design: purchased Signalchem R09-10G
# Chain of RIPK3 (Q9Y572 whole entry): as above
# Method: as §1
# 3T3-SA or L929 cells = test: Drug toxicity dose-response, Supplementary Figure 3; assay type: cell-based, murine; conditions: Mus musculus, read-out: IC50 (printed in Supplementary Figure 3)
# Method: as §2
# T1 sequence (Q13546 1-327 limits assumed): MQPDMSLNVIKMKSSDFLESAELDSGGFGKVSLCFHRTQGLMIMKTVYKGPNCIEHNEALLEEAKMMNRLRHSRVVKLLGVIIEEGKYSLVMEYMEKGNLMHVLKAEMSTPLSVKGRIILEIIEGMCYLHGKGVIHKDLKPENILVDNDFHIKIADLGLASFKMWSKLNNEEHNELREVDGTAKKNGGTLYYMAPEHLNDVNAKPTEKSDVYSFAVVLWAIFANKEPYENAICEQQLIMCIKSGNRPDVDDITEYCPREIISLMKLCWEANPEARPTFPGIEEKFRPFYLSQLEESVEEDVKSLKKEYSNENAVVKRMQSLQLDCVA
smiles,measurement,setting,value
"Cc1ccc(C(=O)Nc2ccc(CN3CCN(C)CC3)c(C(F)(F)F)c2)cc1C#Cc1cnc2cccnn12 [ponatinib, Ponatinib]",RIPK1 kinase activity (MBP phosphorylation),recombinant RIPK1,strongly blocked phosphorylation
same,block of cell death driven by MLKL S358D expression,HT-29 MLKL S358D cells,did not prevent cell death
same,IC50,[1],1600 nM
same,block of necroptotic cell death,3T3-SA cells,capable of blocking necroptotic cell death with comparable potency
same,RIPK3 thermostability (target engagement),endogenous RIPK3,led to a shift in the RIPK3 thermostability curve
same,binding of RIPK3 to MLKL,RIPK3 to MLKL binding,efficiently blocked binding of RIPK3 to MLKL
same,RIPK3 kinase activity (MBP phosphorylation),"RIPK3; 50 μM ATP, Figure 4e inhibitors at 10 μM",strongly blocked phosphorylation
same,RIPK3 autophosphorylation,"RIPK3; autoradiography, Supplementary Figure 4c",efficiently blocked
same,IC50,3T3-SA or L929 cells,1100 nM
